Test results taken from ChEMBL document CHEMBL1212786 (Antimicrob Agents Chemother, 2010).

Legend:
[1] = Half life in human liver microsomes at 1 uM after 5 to 30 mins by MS analysis in presence of NADPH; assay type: ADME, Microsome
Cytochrome P450 1A2 = target: T1, Cytochrome P450 1A2 (Homo sapiens, UniProt P05177); assay: Inhibition of human recombinant CYP1A2 after 30 mins; assay type: ADME
T1 sequence (P05177 whole entry): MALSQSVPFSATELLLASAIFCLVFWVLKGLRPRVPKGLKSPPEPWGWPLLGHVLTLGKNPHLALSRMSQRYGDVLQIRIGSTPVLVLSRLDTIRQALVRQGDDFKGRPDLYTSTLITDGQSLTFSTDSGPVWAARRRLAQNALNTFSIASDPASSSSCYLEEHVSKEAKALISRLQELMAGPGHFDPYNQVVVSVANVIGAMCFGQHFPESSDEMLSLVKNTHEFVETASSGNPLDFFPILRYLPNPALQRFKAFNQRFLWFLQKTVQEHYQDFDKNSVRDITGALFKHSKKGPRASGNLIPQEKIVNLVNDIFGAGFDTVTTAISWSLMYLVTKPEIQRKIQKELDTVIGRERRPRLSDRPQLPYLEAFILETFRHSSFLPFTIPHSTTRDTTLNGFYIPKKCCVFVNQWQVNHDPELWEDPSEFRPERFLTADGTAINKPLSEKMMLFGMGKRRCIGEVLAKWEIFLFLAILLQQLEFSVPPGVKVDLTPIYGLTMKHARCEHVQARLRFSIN

[2] = AUC (0 to infinity) in Sprague-Dawley rat at 10 mg/kg, po after 24 hrs by LC/MS/MS analysis; assay type: ADME, organism-based; design: time infinity, dose 10 mg/kg, route oral; conditions: plasma
[3] = Oral bioavailability in monkey at 7.5 mg/kg after 24 hrs by LC/MS/MS analysis; assay type: ADME, organism-based, Macaca mulatta; conditions: rhesus monkey, in vivo
[4] = Cytotoxicity against human Huh7ET cells assessed as lactate dehydrogenase release up to 10 uM after 72 hrs; assay type: cell-based; conditions: huh-7, 72 h
Hepatitis C virus [5] = assay: microbe, parasite or virus in culture; conditions: Huh-7
Description: Antiviral activity against Hepatitis C virus infected in human Huh7ET cells assessed as suppression of full length viral RNA replication after 24 to 72 hrs by luciferase reporter gene assay

Jurkat = assay: cells; conditions: Homo sapiens
[6] = Cytotoxicity against human Huh7ET cells assessed as lactate dehydrogenase release up to 5 uM after 72 hrs; assay type: cell-based; conditions: huh-7, 72 h
[7] = Cmax in Sprague-Dawley rat liver at 10 mg/kg, iv by LC/MS/MS analysis; assay type: ADME, organism-based; design: dose 10 mg/kg, route intravenous
[8] = Tmax in monkey at 7. 5 mg/kg, po by LC/MS/MS analysis; assay type: ADME, organism-based, Macaca mulatta; design: dose 5 mg/kg, route oral; conditions: rhesus monkey, in vivo
Hepatitis C virus [9] = assay: microbe, parasite or virus in culture; conditions: Huh-7, 24 h
Description: Antiviral activity against Hepatitis C virus infected in human Huh7ET cells assessed as inhibition of viral replication after 24 hrs by RT-PCR analysis

Liver microsomes = assay: Intrinsic clearance in human liver microsomes at 1 uM after 5 to 30 mins by MS analysis in presence of NADPH; assay type: ADME, Microsome
[10] = Apparent elimination half life in monkey at 15 mg/kg, po after 24 hrs by LC/MS/MS analysis; assay type: ADME, organism-based, Macaca mulatta; design: dose 15 mg/kg, route oral; conditions: rhesus monkey, in vivo
[11] = Cmax in Sprague-Dawley rat liver at 30 mg/kg, po by LC/MS/MS analysis; assay type: ADME, organism-based; design: dose 30 mg/kg, route oral
[12] = Apparent elimination half life in monkey at 1.4 mg/kg, iv by LC/MS/MS analysis; assay type: ADME, organism-based, Macaca mulatta; design: dose 1.4 mg/kg, route intravenous; conditions: rhesus monkey, in vivo
Hepatitis C virus [13] = assay: Antiviral activity against Hepatitis C virus infected in human Huh7ET cells assessed as inhibition of viral replication at 0.02 to 5 uM by luciferase reporter gene assay; assay type: functional, organism-based; conditions: Hepacivirus hominis, Huh-7, TDE = time-dependent effect
[14] = AUC (0 to infinity) in Sprague-Dawley rat at 5 mg/kg, po after 24 hrs by LC/MS/MS analysis; assay type: ADME, organism-based; design: time infinity, dose 5 mg/kg, route oral; conditions: plasma
[15] = AUC (2 to 24 hrs) in Sprague-Dawley rat liver at 10 mg/kg, po by LC/MS/MS analysis; assay type: ADME, organism-based; design: time 2-24 hr, dose 10 mg/kg, route oral
[16] = Apparent elimination half life in monkey at 1 mg/kg, iv by LC/MS/MS analysis; assay type: ADME, organism-based, Macaca mulatta; design: dose 1 mg/kg, route intravenous; conditions: rhesus monkey, in vivo
[17] = Apparent volume of distribution in Sprague-Dawley rat at 5 mg/kg, iv after 24 hrs by LC/MS/MS analysis; assay type: ADME, organism-based; design: dose 5 mg/kg, route intravenous; conditions: in vivo, read-out: Vz
Hepatitis C virus [18] = assay: microbe, parasite or virus in culture; conditions: Huh-7, 120 h
Description: Antiviral activity against Hepatitis C virus infected in human Huh7ET cells assessed as inhibition of viral replication after 120 hrs by luciferase reporter gene assay

Hepatitis C virus [19] = assay: Antiviral activity against Hepatitis C virus infected in human Huh7ET cells assessed as inhibition of viral replication after 72 hrs by luciferase reporter gene assay; assay type: functional, organism-based
[20] = AUC (0 to infinity) in monkey at 5 mg/kg, po after 24 hrs by LC/MS/MS analysis; assay type: ADME, organism-based, Macaca mulatta; design: time infinity, dose 5 mg/kg, route oral; conditions: rhesus monkey, plasma
PBMC = assay: Antiinflammatory activity in human PBMC assessed as inhibition of anti-CD3/CD28 antibody-induced IL-2 production treated for 1 hr before anti-CD3/CD28 antibody challenge measured after 6 hrs by immunosuppression assay; assay type: functional, cell-based; conditions: read-out: EC50
[21] = Cytotoxicity against human PBMC assessed as cell viability at 10 uM after 18 hrs relative to control; assay type: cell-based; conditions: read-out: Activity
Hepatitis C virus [22] = assay: microbe, parasite or virus in culture; conditions: Huh-7, 72 h
[23] = Apparent volume of distribution in Sprague-Dawley rat at 2 mg/kg, iv after 24 hrs by LC/MS/MS analysis; assay type: ADME, organism-based; design: dose 2 mg/kg, route intravenous; conditions: in vivo, read-out: Vz
[24] = Cytotoxicity against human Huh7 cells assessed as lactate dehydrogenase release after 72 hrs; assay type: cell-based, Huh-7
[25] = AUC (0 to infinity) in Sprague-Dawley rat at 20 mg/kg, po after 24 hrs by LC/MS/MS analysis; assay type: ADME, organism-based; design: time infinity, dose 20 mg/kg, route oral; conditions: plasma
[26] = Apparent elimination half life Sprague-Dawley rat at 20 mg/kg, po after 24 hrs by LC/MS/MS analysis; assay type: ADME, organism-based; design: dose 20 mg/kg, route oral; conditions: in vivo
[27] = AUC (2 to 24 hrs) in Sprague-Dawley rat whole blood at 30 mg/kg, po by LC/MS/MS analysis; assay type: ADME, organism-based; design: time 2-24 hr, dose 30 mg/kg, route oral
[28] = Apparent volume of distribution in monkey at 1.4 mg/kg, iv after 24 hrs by LC/MS/MS analysis; assay type: ADME, organism-based, Macaca mulatta; design: dose 1.4 mg/kg, route intravenous; conditions: rhesus monkey, in vivo, read-out: Vz
[29] = Tmax in monkey at 5 mg/kg, po by LC/MS/MS analysis; assay type: ADME, organism-based, Macaca mulatta; design: dose 5 mg/kg, route oral; conditions: rhesus monkey, in vivo
[30] = AUC (2 to 24 hrs) in Sprague-Dawley rat whole blood at 10 mg/kg, po by LC/MS/MS analysis; assay type: ADME, organism-based; design: time upper 24 hr, time lower 2 hr, dose 10 mg/kg, route oral
Hepatitis C virus [31] = assay: microbe, parasite or virus in culture; conditions: Huh-7, 72 h; remark: listed apart in the source
[32] = Tmax in Sprague-Dawley rat at 10 mg/kg, po by LC/MS/MS analysis; assay type: ADME, organism-based; design: dose 10 mg/kg, route oral; conditions: in vivo
Cytochrome P450 2C19 = Cytochrome P450 2C19 (Homo sapiens, UniProt P33261); assay: Inhibition of human recombinant CYP2C19 after 30 mins; assay type: ADME
[33] = Apparent elimination half life Sprague-Dawley rat at 10 mg/kg, po after 24 hrs by LC/MS/MS analysis; assay type: ADME, organism-based; design: dose 10 mg/kg, route oral; conditions: in vivo
[34] = Systemic clearance in Sprague-Dawley rat at 2 mg/kg, iv after 24 hrs by LC/MS/MS analysis; assay type: ADME, organism-based; design: dose 2 mg/kg, route intravenous; conditions: in vivo
[35] = Cmax in Sprague-Dawley rat at 2 mg/kg, iv after 24 hrs by LC/MS/MS analysis; assay type: ADME, organism-based; design: dose 2 mg/kg, route intravenous; conditions: in vivo

Sequence of Cytochrome P450 2C19 (P33261 whole entry): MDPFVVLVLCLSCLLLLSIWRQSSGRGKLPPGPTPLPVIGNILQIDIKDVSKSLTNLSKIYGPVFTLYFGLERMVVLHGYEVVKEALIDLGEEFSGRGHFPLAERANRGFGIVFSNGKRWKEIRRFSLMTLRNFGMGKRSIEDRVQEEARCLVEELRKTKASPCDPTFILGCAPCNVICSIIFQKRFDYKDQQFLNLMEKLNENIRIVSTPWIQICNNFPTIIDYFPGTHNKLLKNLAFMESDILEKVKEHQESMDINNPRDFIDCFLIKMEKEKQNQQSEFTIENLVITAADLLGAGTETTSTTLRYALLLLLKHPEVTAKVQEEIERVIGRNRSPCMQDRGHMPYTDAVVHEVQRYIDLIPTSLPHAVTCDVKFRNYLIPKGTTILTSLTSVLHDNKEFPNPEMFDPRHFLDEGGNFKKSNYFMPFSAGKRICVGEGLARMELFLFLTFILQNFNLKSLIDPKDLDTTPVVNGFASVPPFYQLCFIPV

Structure (SMILES): C/C=C/C[C@@H](C)[C@@H](O)[C@H]1C(=O)N[C@@H](CC)C(=O)N(C)C(SCCN(C)C)C(=O)N(C)[C@@H](CC(C)(C)O)C(=O)N[C@@H](C(C)C)C(=O)N(C)[C@@H](CC(C)C)C(=O)N[C@@H](C)C(=O)N[C@H](C)C(=O)N(C)[C@@H](CC(C)C)C(=O)N(C)[C@@H](CC(C)C)C(=O)N(C)[C@@H](C(C)C)C(=O)N1C (single isomer, unassigned) [SCY 635]
- half-life at 1 µM [1]: 1.05 h
- IC50 (Cytochrome P450 1A2): > 100000 nM
- AUC(0-inf) [2]: 26500 ng·h/mL
- bioavailability [3]: 15.7%
- Activity [4]: Non-toxic
- EC50 (Hepatitis C virus [5]): 130 nM
- EC50 (Jurkat): 9900 nM
- Activity [6]: Non-toxic
- Cmax [7]: 13500 ng/mL
- Tmax [8]: 2.7 h
- EC50 (Hepatitis C virus [9]): 120 nM
- clearance (Liver microsomes): 14 µL/min/mg
- half-life [10]: 43.3 h
- Cmax [11]: 16800 ng/mL
- half-life [12]: 42.2 h
- Activity (Hepatitis C virus [13]): tde
- AUC(0-inf) [14]: 13000 ng·h/mL
- AUC(0-t) [15]: 120000 ng·h/mL
- half-life [16]: 22.3 h
- Vd [17]: 4.3 L/kg
- EC50 (Hepatitis C virus [18]): 150 nM
- Activity (Hepatitis C virus [19]; Hepacivirus hominis, Huh-7): Dose-dependent effect
- EC90 (Hepatitis C virus [19]; Huh-7, 72 h): 350 nM
- AUC(0-inf) [20]: 27900 ng·h/mL
- EC50 (PBMC): 5300 nM
- viability at 18 h, 10 µM [21]: 10.9%
- EC50 (Hepatitis C virus [22]): 90 nM
- Vd [23]: 3.37 L/kg
- CC50 at 72 h [24]: 13700 nM
- AUC(0-inf) [25]: 42500 ng·h/mL
- half-life [26]: 23.8 h
- AUC(0-t) [27]: 30200 ng·h/mL
- Vd [28]: 1.69 L/kg
- Tmax [29]: 2 h
- AUC(0-t) [30]: 18000 ng·h/mL
- EC50 (Hepatitis C virus [31]): 110 nM
- Tmax [32]: 8 h
- IC50 (Cytochrome P450 2C19): 12400 nM
- half-life [33]: 21.4 h
- clearance [34]: 1.48 mL/min/kg
- Cmax [35]: 1510 ng/mL
